According to the NIST ThermoML archive (doi:10.1016/j.jct.2018.02.022):
± gives the expanded uncertainty stated by the source.

Experiment: xn = mol fraction of the nth substance listed
Settings: 92.3 kPa, Liquid; for viscosity: Concentric cylinders viscometry; for speed of sound: Frequency=3 MHz, Single path-length method; for mass density: Vibrating tube method

OCCOCCO [diethylene glycol] + O
Settings	mass density, 293.15 K [kg/m3]	mass density, 298.15 K [kg/m3]	speed of sound, 293.15 K [m/s]	speed of sound, 298.15 K [m/s]	viscosity, 293.15 K [mPa·s]	viscosity, 298.15 K [mPa·s]
x1 = 0.0097	1006.17 ± 3.2	1004.88 ± 3.2	1511.2 ± 1.8	1523 ± 1.8	–	–
x1 = 0.0201	1013.77 ± 3.2	1012.33 ± 3.2	1539.6 ± 1.8	1549.1 ± 1.8	–	–
x1 = 0.0297	1020.4 ± 3.2	1018.8 ± 3.2	1563.6 ± 1.8	1571.1 ± 1.8	–	–
x1 = 0.0397	1026.98 ± 3.2	1025.23 ± 3.2	1586.2 ± 1.8	1591.7 ± 1.8	–	–
x1 = 0.049	1032.59 ± 3.2	1030.67 ± 3.2	–	–	2.119 ± 0.3	1.717 ± 0.24
x1 = 0.0502	1033.24 ± 3.2	1031.33 ± 3.2	1607.7 ± 1.8	1611.3 ± 1.8	–	–
x1 = 0.0591	1038.24 ± 3.2	1036.19 ± 3.2	1624 ± 1.8	1626.1 ± 1.8	–	–
x1 = 0.0703	1044.16 ± 3.3	1041.95 ± 3.3	1642.5 ± 1.8	1643 ± 1.8	–	–
x1 = 0.0796	1048.67 ± 3.3	1046.34 ± 3.3	1655.5 ± 1.8	1654.7 ± 1.8	–	–
x1 = 0.0897	1053.15 ± 3.3	1050.7 ± 3.3	1667.9 ± 1.8	1665.9 ± 1.8	–	–
x1 = 0.0992	1057.14 ± 3.3	1054.62 ± 3.3	–	–	3.602 ± 0.5	2.877 ± 0.4
x1 = 0.1004	1057.71 ± 3.3	1055.14 ± 3.3	1679.7 ± 1.8	1676.5 ± 1.8	–	–
x1 = 0.149	1074.04 ± 3.3	1071.09 ± 3.3	–	–	5.458 ± 0.76	4.314 ± 0.6
x1 = 0.1507	1074.47 ± 3.3	1071.48 ± 3.3	1713 ± 1.8	1705.9 ± 1.8	–	–
x1 = 0.1996	1085.68 ± 3.3	1082.45 ± 3.3	1723.9 ± 1.8	1714.7 ± 1.8	–	–
x1 = 0.1998	1085.89 ± 3.3	1082.66 ± 3.3	–	–	7.66 ± 1.1	6.022 ± 0.84
x1 = 0.2467	1093.59 ± 3.3	1090.21 ± 3.3	1723 ± 1.8	1712.6 ± 1.8	–	–
x1 = 0.249	1093.81 ± 3.3	1090.4 ± 3.3	–	–	10.04 ± 1.4	7.847 ± 1.1
x1 = 0.2943	1098.86 ± 3.3	1095.38 ± 3.3	1716.6 ± 1.8	1705.5 ± 1.8	–	–
x1 = 0.2987	1099.44 ± 3.3	1095.93 ± 3.3	–	–	12.55 ± 1.8	9.772 ± 1.4
x1 = 0.3501	1103.6 ± 3.3	1100.05 ± 3.3	–	–	15.18 ± 2.1	11.79 ± 1.7
x1 = 0.3511	1103.73 ± 3.3	1100.19 ± 3.3	1705.1 ± 1.9	1693.5 ± 1.9	–	–
x1 = 0.3995	1106.65 ± 3.3	1103.05 ± 3.3	1694 ± 1.9	1682.2 ± 1.9	–	–
x1 = 0.4007	1106.63 ± 3.3	1103.05 ± 3.3	–	–	17.72 ± 2.5	13.74 ± 1.9
x1 = 0.4504	1108.9 ± 3.3	1105.32 ± 3.3	–	–	20.13 ± 2.8	15.59 ± 2.2
x1 = 0.4527	1109.08 ± 3.3	1105.5 ± 3.3	1681.7 ± 1.9	1669.8 ± 1.9	–	–
x1 = 0.4973	1110.6 ± 3.3	1107.02 ± 3.3	–	–	22.3 ± 3.1	17.24 ± 2.4
x1 = 0.5008	1110.76 ± 3.3	1107.17 ± 3.3	1670.7 ± 1.9	1658.7 ± 1.9	–	–
x1 = 0.5449	1111.95 ± 3.3	1108.36 ± 3.3	1661.5 ± 1.9	1649.4 ± 1.9	–	–
x1 = 0.553	1112.18 ± 3.3	1108.61 ± 3.3	–	–	24.68 ± 3.5	19.07 ± 2.7
x1 = 0.5834	1112.81 ± 3.3	1109.23 ± 3.3	1653.4 ± 1.9	1641.4 ± 1.9	–	–
x1 = 0.5938	1113.09 ± 3.3	1109.52 ± 3.3	–	–	26.23 ± 3.7	20.23 ± 2.8
x1 = 0.6482	1113.95 ± 3.3	1110.37 ± 3.3	1640.7 ± 1.9	1628.7 ± 1.9	–	–
x1 = 0.6514	1114.07 ± 3.3	1110.49 ± 3.3	–	–	28.3 ± 4	21.86 ± 3.1
x1 = 0.6864	1114.52 ± 3.3	1110.94 ± 3.3	–	–	29.45 ± 4.1	22.7 ± 3.2
x1 = 0.6982	1114.6 ± 3.3	1111.02 ± 3.3	1632.2 ± 1.9	1620.2 ± 1.9	–	–
x1 = 0.7444	1115.11 ± 3.3	1111.54 ± 3.3	1624.4 ± 1.9	1612.5 ± 1.9	–	–
x1 = 0.7556	1115.19 ± 3.3	1111.61 ± 3.3	–	–	31.37 ± 4.4	24.17 ± 3.4
x1 = 0.7962	1115.57 ± 3.3	1112.01 ± 3.3	1616.7 ± 2	1604.8 ± 2	–	–
x1 = 0.7999	1115.52 ± 3.3	1111.95 ± 3.3	–	–	32.41 ± 4.5	24.94 ± 3.5
x1 = 0.8401	1115.89 ± 3.3	1112.33 ± 3.3	1610.4 ± 2	1598.5 ± 2	–	–
x1 = 0.8525	1115.89 ± 3.3	1112.33 ± 3.3	–	–	33.47 ± 4.7	25.8 ± 3.6
x1 = 0.8947	1116.23 ± 3.3	1112.67 ± 3.3	1603.3 ± 2	1591.5 ± 2	–	–
x1 = 0.9002	1116.23 ± 3.3	1112.68 ± 3.3	–	–	34.4 ± 4.8	26.49 ± 3.7
x1 = 0.9092	1116.32 ± 3.3	1112.76 ± 3.3	1601.5 ± 2	1589.6 ± 2	–	–
x1 = 0.919	1116.37 ± 3.3	1112.81 ± 3.3	1600.2 ± 2	1588.4 ± 2	–	–
x1 = 0.9303	1116.39 ± 3.3	1112.85 ± 3.3	1599.1 ± 2	1587.2 ± 2	–	–
x1 = 0.9393	1116.4 ± 3.3	1112.85 ± 3.3	1598 ± 2	1586.2 ± 2	–	–
x1 = 0.9473	1116.5 ± 3.3	1112.94 ± 3.3	1597.2 ± 2	1585.3 ± 2	–	–
x1 = 0.9554	1116.57 ± 3.3	1113.02 ± 3.3	–	–	35.26 ± 4.9	27.15 ± 3.8
x1 = 0.9566	1116.55 ± 3.3	1112.99 ± 3.3	1596 ± 2	1584.1 ± 2	–	–
x1 = 0.9694	1116.6 ± 3.3	1113.04 ± 3.3	1594.6 ± 2	1582.7 ± 2	–	–
x1 = 0.9801	1116.65 ± 3.3	1113.09 ± 3.3	1593.4 ± 2	1581.5 ± 2	–	–
x1 = 0.9915	1116.69 ± 3.2	1113.13 ± 3.2	1592.1 ± 2	1580.3 ± 2	–	–
x1 = 1	1116.73 ± 3	1113.17 ± 3	1591 ± 2	1579.1 ± 2	35.89 ± 5	27.67 ± 3.9
